# Laboratory results published in ChEMBL document CHEMBL1151560, “Nonpeptide glycoprotein IIb/IIIa inhibitors: 18. Indole alpha-sulfonamide acids are potent inhibitors of platelet aggregation” (Bioorg Med Chem Lett, 1997).
# Columns and labels:
# [1] = biological target: Integrin alpha-IIb/beta-3 (Homo sapiens) (UniProt P05106+P08514); test: Evaluated for competitive binding against fibrinogen receptor antagonist [125I]-L-692,884 to purified alpha IIb beta-3 integrin activated by coating onto yttrium silicate Scintillation Proximity Assay Fluomicrospheres (SPA-A assay).; assay type: protein-complex assay
# [2] = biological target: T1, Albumin (Homo sapiens, UniProt P02768); test: Protein Binding Assay measures the ability of a compound to bind to human albumin in pH 7.4 buffer.
# T1 sequence (P02768 whole entry): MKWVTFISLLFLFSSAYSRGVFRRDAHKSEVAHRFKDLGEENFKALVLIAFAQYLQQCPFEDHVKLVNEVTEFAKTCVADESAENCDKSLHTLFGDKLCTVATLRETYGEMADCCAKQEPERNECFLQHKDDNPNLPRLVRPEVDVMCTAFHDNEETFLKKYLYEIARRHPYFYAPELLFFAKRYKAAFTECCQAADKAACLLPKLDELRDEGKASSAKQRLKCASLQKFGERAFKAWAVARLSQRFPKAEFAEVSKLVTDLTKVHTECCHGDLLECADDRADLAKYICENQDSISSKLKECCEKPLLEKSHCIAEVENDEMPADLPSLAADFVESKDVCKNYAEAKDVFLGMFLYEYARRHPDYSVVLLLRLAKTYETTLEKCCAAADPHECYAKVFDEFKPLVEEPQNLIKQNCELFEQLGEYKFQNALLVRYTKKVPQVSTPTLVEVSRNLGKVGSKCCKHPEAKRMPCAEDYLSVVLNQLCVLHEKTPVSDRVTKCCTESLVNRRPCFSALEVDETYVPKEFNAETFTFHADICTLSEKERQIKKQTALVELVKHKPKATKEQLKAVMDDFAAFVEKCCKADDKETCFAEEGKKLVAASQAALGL
# [3] = organism: Homo sapiens; test: Inhibition of ADP-induced platelet aggregation in human gel-filtered platelets; assay type: functional
# [4] = biological target: T1, Albumin; test: Protein Binding Assay measures the ability of a compound to bind to human albumin in pH 7.4 buffer.; not soluble
SMILES,ED50 [1],Binding [2],IC50 [3],Binding [4]
O=C(O)CCNC(=O)c1cc2cc(OCC3CCNCC3)ccc2[nH]1,170 nM,52%,1000 nM,
O=C(NC[C@H](NS(=O)(=O)c1ccccc1)C(=O)O)c1cc2cc(OCc3ccncc3)ccc2[nH]1,0.25 nM,99%,280 nM,
O=C(NC[C@H](NS(=O)(=O)c1ccccc1)C(=O)O)c1cc2ccc(OCC3CCNCC3)cc2[nH]1,0.49 nM,57%,15 nM,
O=C(NC[C@H](NS(=O)(=O)c1ccccc1)C(=O)O)c1cc2cc(OCCC3CCNCC3)ccc2[nH]1,0.056 nM,76%,8 nM,
O=C(NC[C@H](NS(=O)(=O)c1ccccc1)C(=O)O)c1cc2cc(OCC3CCNCC3)ccc2n1Cc1ccccc1,,,150 nM,Insoluble
O=C(O)CC(NC(=O)c1cc2cc(OCC3CCNCC3)ccc2[nH]1)c1cccnc1 (stereo not given),,47%,810 nM,
Cc1ccc(S(=O)(=O)N[C@@H](CNC(=O)c2cc3cc(OCC4CCNCC4)ccc3[nH]2)C(=O)O)cc1,0.06 nM,85%,6 nM,
Nc1cc(COc2ccc3[nH]c(C(=O)NC[C@H](NS(=O)(=O)c4ccccc4)C(=O)O)cc3c2)ccn1,0.07 nM,99%,45 nM,
O=C(NC[C@H](NS(=O)(=O)c1ccccc1)C(=O)O)c1cc2cc(OCCn3ccnc3)ccc2[nH]1,0.28 nM,98%,45 nM,
O=C(NC[C@H](NS(=O)(=O)c1cccnc1)C(=O)O)c1cc2cc(OCC3CCNCC3)ccc2[nH]1,0.07 nM,,12 nM,
CC1(C)C2CCC1(CS(=O)(=O)N[C@@H](CNC(=O)c1cc3cc(OCC4CCNCC4)ccc3[nH]1)C(=O)O)C(=O)C2 (stereo not given in full),0.04 nM,63%,17 nM,
O=C(NC[C@H](NS(=O)(=O)c1ccccc1)C(=O)O)c1cc2cc(OCC3CCNCC3)ccc2[nH]1,0.099 nM,66%,13 nM,
O=C(NC[C@H](NS(=O)(=O)c1ccccc1)C(=O)O)c1cc2cc(OCCCc3c[nH]cn3)ccc2[nH]1,2 nM,98%,100 nM,
O=C(NC[C@H](NS(=O)(=O)c1ccccc1)C(=O)O)c1cc2cc(OCCN3CCNCC3)ccc2[nH]1,0.13 nM,57%,12 nM,
Cn1c(C(=O)NC[C@H](NS(=O)(=O)c2ccccc2)C(=O)O)cc2cc(OCCC3CCNCC3)ccc21,,94%,21 nM,
O=C(Cc1c[nH]c2ccc(OCC3CCNCC3)cc12)NC[C@H](NS(=O)(=O)c1ccccc1)C(=O)O,,,5700 nM,Insoluble
Cn1c(C(=O)NC[C@H](NS(=O)(=O)c2ccccc2)C(=O)O)cc2cc(OCC3CCNCC3)ccc21,,94%,15 nM,
